Experimental findings from article PMC8643619 (Plant and Cell Physiology, 2021) are described below.

One experiment relates to PcAAE2. Description: coupled NADH oxidation assay. It is filed as biochemical, Pogostemon cablin. Conditions: 10 mM MgCl2, pH 7.5, 30°C.
The test system of the next experiment is PcAAE1. Description: coupled NADH oxidation assay. Conditions: 10 mM MgCl2, pH 7.5, 30°C. It is filed as biochemical, Pogostemon cablin.

As a reminder, the Km is the concentration of substrate that gives half-maximal velocity.

In the case of `CC(C)CCC(=O)O` [4-Methylvaleric acid], the Km in the experiment with PcAAE2 (1 mM CoA, 5 mM ATP) turned out to be 43.4 ± 5.1 µM.
In the case of `CC(C)CCCC(=O)O` [5-Methylhexanoic acid], the Km in the experiment on PcAAE2 (1 mM CoA, 5 mM ATP) worked out at 176 ± 20 µM.
As to `Nc1ncnc2c1ncn2[C@@H]1O[C@H](COP(=O)(O)OP(=O)(O)OP(=O)(O)O)[C@@H](O)[C@H]1O` [ATP], the Km in the experiment on PcAAE2 (co-substrate 4-methylvaleric acid 1 mM, CoA 1 mM) stood at 160 µM; with PcAAE1 (co-substrate isovaleric acid 1 mM, CoA 1 mM), 89 µM.
For `CCCC(=O)O` [Butyric acid], the Michaelis constant (Km) turned out to be 570 ± 86.5 µM in the experiment on PcAAE2 (1 mM CoA, 5 mM ATP) and 161 ± 5 µM in the experiment on PcAAE1 (1 mM CoA, 5 mM ATP).
Turning to `CC(C)(COP(=O)(O)OP(=O)(O)OC[C@H]1O[C@@H](n2cnc3c(N)ncnc32)[C@H](O)[C@@H]1OP(=O)(O)O)[C@@H](O)C(=O)NCCC(=O)NCCS` [CoA], the Km turned out to be 40.2 µM in the experiment on PcAAE2 (co-substrate 4-methylvaleric acid 1 mM, 5 mM ATP) and 28.2 µM in the experiment with PcAAE1 (co-substrate isovaleric acid 1 mM, 5 mM ATP).
For the compound `CCCCCCC(=O)O` [Heptanoic acid], the Km in the experiment with PcAAE2 (1 mM CoA, 5 mM ATP) was determined as 84.5 ± 7.1 µM.
The same measure, in the same setting: for `CCCCCC(=O)O` [Hexanoic acid] the value was 41.5 ± 2.4 µM.
Turning to `CC(C)CC(=O)O` [Isovaleric acid], the Km in the experiment on PcAAE2 (1 mM CoA, 5 mM ATP) came out at 217 ± 13.1 µM; in the experiment with PcAAE1 (1 mM CoA, 5 mM ATP), 12.9 ± 0.8 µM.
As for `CCCCC(=O)O` [Valeric acid], the Km with PcAAE2 (1 mM CoA, 5 mM ATP) came to 53.9 ± 2.7 µM.
